# Biological target: T1, recombinant mouse PRSS2 (Mus musculus, UniProt P07146)
# T1 construct: purchased Sino Biological, Inc. 50383-M08H
# T1 sequence (P07146 24-246): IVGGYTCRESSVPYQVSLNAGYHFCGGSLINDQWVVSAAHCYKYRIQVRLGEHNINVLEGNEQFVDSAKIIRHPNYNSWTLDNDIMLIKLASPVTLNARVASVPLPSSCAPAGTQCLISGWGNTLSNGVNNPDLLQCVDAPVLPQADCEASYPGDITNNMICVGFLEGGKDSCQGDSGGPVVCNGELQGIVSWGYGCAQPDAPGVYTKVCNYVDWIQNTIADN
# Assay: Trypsin decomposition in vitro by bacteria (western blot)
# Type: biochemical
# Settings: P. clara cultured overnight with inhibitor
# Experimental: Mouse faecal samples were suspended and diluted 50-fold with phosphate buffered saline (PBS) to which a protease inhibitor cocktail (Roche) was added. Subsequently, the suspended sample was centrifuged at 15,000×g for 10 minutes at 4° C., and the supernatant was subjected to western blot. Mouse pancreatic tissue was rapidly frozen in liquid nitrogen. Proteins were extracted by TRIzol Reagent (Thermo Fisher Scientific K.K.), and the final protein concentration was adjusted to 4 μg/μL. For SDS-PAGE and blotting, Novex (registered trademark) NuPAGE (registered trademark) SDS-PAGE Gel system (Thermo Fisher Scientific K.K.) and iBlot™ 2 Dry Blotting System (Thermo Fisher Scientific K.K.) were used according to the manufacturer's instructions.
# The bacteria cultured overnight were incubated with recombinant mouse trypsin (final concentration: 1 μg/mL) for 1 hour or with human trypsin (final concentration: 20 μg/mL) for 4 hours. Recombinant trypsin isoforms used were as follows: recombinant mouse PRSS2 (50383-M08H, Sino Biological, Inc.), recombinant human PRSS1 (LS-G135640), recombinant human PRSS2 (LS-G20167), and recombinant human PRSS3 (His-tag) (NBP2-52220).
# In some experiments, recombinant mouse PRSS2 was first treated with one of the following trypsin inhibitors for 30 minutes before incubation with a P. clara culture solution. AEBSF (Sigma-Aldrich, final concentration: 2 mM), Leupeptin (Sigma-Aldrich, final concentration: 100 μM), and TLCK (Abcam plc., final concentration: 100 μM).
# In some experiments, P. clara was cultured overnight in the presence of Tunicamycin (Sigma-Aldrich, final concentration: 10 μg/mL), 2-Fluoro-L-fucose (Cayman Chemical Company, final concentration: 250 μM), or the corresponding DMSO control, before incubation with recombinant mouse PRSS2.
# In the experiment of evaluating the effect of Ca^2+, P. clara was cultured in a low Ca^2+ mGAM medium supplemented with or without 1 mM of Ca^2+, before incubation with recombinant mouse PRSS2. In the experiment in which the supernatant of P. clara was used, P. clara cultured overnight was filtered through a sterilization filter unit formed using a PVDF film having a pore size of 0.22 μm.
row,Compound,decomposition of rmPRSS2 by P. clara pretreated with sugar chain synthesis inhibitor
1,tunicamycin [reference compound],no decomposition of trypsin was observed

# Same assay, conditions: bacteria or culture supernatant incubated with recombinant mouse trypsin
row,Compound,decomposition of rmPRSS2 (western blot)
1,Paraprevotella clara [P237E3b],effect of reducing trypsin
2,Paraprevotella clara [P322B5],effect of reducing trypsin
3,Paraprevotella xylaniphila [P. xylaniphila (JCM 14860) strain],potent trypsin-reducing ability
4,Prevotella copri [reference compound],did not decrease the trypsin activity
5,Prevotella denticola [reference compound],did not decrease the trypsin activity
6,Prevotella muris [Prevotella muris strain],had a trypsin-decomposing activity
7,Prevotella oulorum [reference compound],did not decrease the trypsin activity
8,Prevotella rara [Prevotella rara (MSP 0081) strain],had a trypsin-decomposing activity
9,Prevotella rodentium [Prevotella rodentium strain],had a trypsin-decomposing activity
10,Prevotella stercorea [reference compound],did not decrease the trypsin activity

# Same assay, conditions: rmPRSS2 pretreated 30 minutes with inhibitor
row,Compound,trypsin-decomposing ability of P. clara (1C4) after pretreating rmPRSS2 with protease inhibitor
1,"NCCc1ccc(S(=O)(=O)F)cc1 [AEBSF, reference compound]",lost
2,"CC(=O)N[C@@H](CC(C)C)C(=O)N[C@@H](CC(C)C)C(=O)N[C@H](C=O)CCCNC(=N)N [leupeptin, reference compound]",lost

# Biological target: T1, recombinant mouse PRSS2
# Assay: Binding of Alexa Fluor 488-labeled rmPRSS2 to the surface of bacteria (confocal microscope)
# Settings: not given
# Experimental: Recombinant mouse PRSS2 was labeled with Alexa Fluor™ 488 using an Alexa Fluor™ 488 Antibody Labeling Kit (Δ20181, Thermo Fisher Scientific K.K.), and was pretreated with an AEBSF inhibitor (150 μg/mL rmPRSS2 with 20 mM AEBSF).
# Mouse PRSS2 labeled with Alexa Fluor™ 488 was incubated in an anaerobic chamber for 20 minutes with bacteria cultured at a final concentration of 5 μg/mL. The mixture was centrifuged, washed once with PBS, and then resuspended in PBS. A Leica TCS SP8 confocal microscope was used for capturing a confocal image.
Compound,binding of rmPRSS2 to the surface of bacteria,binding of rmPRSS2 to the surface of P. clara treated with sugar chain synthesis inhibitor
Prevotella denticola [reference compound],no accumulation of trypsin was observed,–
Prevotella oulorum [reference compound],no accumulation of trypsin was observed,–
tunicamycin [reference compound],–,no accumulation of trypsin on the surface

# System: trypsin
# Assay: Faecal trypsin activity of GF mice colonized by human microbiota, isolated strain mixtures or P. clara strains
# Type: in vivo, mouse
# Settings: GF+C#5 mice, antibiotic via drinking
# Experimental: Mouse intestinal contents or a mice faecal sample was diluted 500-fold (w/v) with a 0.9% NaCl solution. Human faeces were diluted 200-fold (w/v) with a 0.9% NaCl solution. The diluted solution was vortexed in a mini shaker for 20 minutes at 2,000 rpm, homogenized by pipetting, and then centrifuged at 10,000×g for 15 minutes at 4° C. Subsequently, the supernatant was recovered to measure the trypsin activity by a Trypsin Activity Assay Kit (Colorimetric) for 100 tests (ab102531) according to the manufacturer's protocol. The absorbance at 405 nm was measured in a kinetic mode by using a PerkinElmer 2030 Multilabel Reader.
# Human faecal samples were collected at RIKEN and Keio University according to a research protocol approved by the Research Ethics Review Committee. Informed consent was obtained from each subject. A human faecal sample (preserved in 20% (v/v) glycerol) was transferred to an anaerobic chamber, thawed, and then sieved with a 100 μm mesh, transferred to a GF isolator, and orally administered to GF mice by 200 μL/mouse.
# For an antibiotic treatment, each solution of 0.5 g/L ampicillin (Nacalai Tesque, Inc.), 0.5 g/L metronidazole (Nacalai Tesque, Inc.), and 1.0 g/L tylosin (Sigma-Aldrich) was produced with autoclaved tap water. The antibiotic solution was given, for 12 days, to mice to which the faecal contents derived from a donor C were orally administered. The antibiotic solution was changed once a week.
# The isolated strains except for Phasolactobacterium faecium (3G4) were cultured in an anaerobic chamber at a temperature of 37° C. for 1 to 2 days. Phasolactobacterium faecium was cultured for 2 to 3 days in an Oxoid CM0619 agar plate to which 80 mM sodium succinate was added. The colonies were recovered and resuspended in EGEF. The bacterial density was adjusted based on an OD600 value, and the mixture of the cultured strains was orally administered to GF mice (150 μL/mouse, total bacterial count: about 1 to 2×10^8 CFU).
row,Compound,faecal trypsin activity
1,"CC1(C)S[C@@H]2[C@H](NC(=O)[C@H](N)c3ccccc3)C(=O)N2[C@H]1C(=O)O [Amp, Ampicillin]",more decreased
2,"Cc1ncc([N+](=O)[O-])n1CCO [MNZ, metronidazole]",no decrease
3,"CC[C@H]1OC(=O)C[C@@H](O)[C@H](C)[C@@H](O[C@@H]2O[C@H](C)[C@@H](O[C@H]3C[C@@](C)(O)[C@@H](O)[C@H](C)O3)[C@H](N(C)C)[C@H]2O)[C@@H](CC=O)C[C@@H](C)C(=O)/C=C/C(C)=C/[C@@H]1CO[C@@H]1O[C@H](C)[C@@H](O)[C@@H](OC)[C@H]1OC [Tyl, tylosin]",no decrease

# — patent US20240408170A1, “COMPOSITION FOR DECOMPOSITION OF TRYPSIN OR TMPRSS2” (Riken, priority 2021, published 2024)
